Source: patent US11345712B2, “Protein-targeting compounds and pharmaceutical compositions thereof, and their therapeutic applications” (BioTheryX, Inc., priority 2019, dated 2022)

What was measured:
TNF-α = test: Cytokine modulation assay, LPS-induced PBMCs or CD14+ monocytes: TNFα; assay type: cell-based; settings: 100 ng/mL LPS 18-24 h; for inhibition at 0.1 µM: 0.1 μM compound; for inhibition at 1 µM: 1 μM compound
Protocol: (§1) Frozen primary blood mononuclear cells (PBMCs) or frozen CD14+ mobilized peripheral blood monocytes were quick thawed, washed once with RPMI-1640 (10% FBS/1% Pen-Strep), and plated in 96 well plates at 200,000 cells per well. The cells were pretreated with DMSO only or with a compound for 1 h and then induced with 100 ng/mL lipopolysaccharide (LPS) for 18-24 h. The supernatant was analyzed for IL-1β, IL-6, and TNFα using Meso Scale assays. The negative control wells were treated with DMSO.

CK1α = molecular target: T1, CK1α (Homo sapiens, UniProt P48729+Q96SW2); test: Protein degradation assay (Western blot) in MV-4-11 cells: CK1α; assay type: cell-based; settings: 6-8 h, compound concentration 0.1 μM
T1 construct: Whole cell extracts were prepared using a radioimmunoprecipitation assay (RIPA) buffer; endogenous in cells; host or cells: MV-4-11
Protocol: (§2) MV-4-11 cells were grown in RPMI 1640 media supplemented with 10% fetal bovine serum, streptomycin, and penicillin. The cells were cultured at approximately 10^6 cells per mL and incubated in DMSO or a compound for 6-8 h. Whole cell extracts were prepared using a radioimmunoprecipitation assay (RIPA) buffer. Briefly, 3×10^6 cells were washed once in PBS, and the cell pellets were resuspended in the RIPA buffer and incubated for 15 min on ice. Cells debris was removed by centrifugation and the cleared whole cell lysates were transferred to new tubes for further analysis.
(§3) For Western blot analysis, whole cell protein extracts were separated on 4-12% SDS-polyacrylamide gels, transferred to nitrocellulose, and probed with primary antibodies. Membranes were subsequently washed and probed with IRDYE® secondary antibodies. The signal was detected using an ODYSSEY® Imaging System.
(§4) The following antibodies were used in the assays described herein: anti-eRF3/GSPT1: Abcam, ab126090 (Cambridge, Mass.); anti-Ikaros: Abcam, ab191394 (Cambridge, Mass.); anti-CK1α: Abcam, ab108296 (Cambridge, Mass.); β-actin (8H10D10) mouse monoclonal antibody: Cell Signaling Technology, #3700 (Danvers, Mass.); IRDYE® 680RD goat anti-rabbit antibody: LI-COR, 926-68071 (Lincoln, Nebr.); and IRDYE® 800CW goat anti-mouse antibody: LI-COR, 926-32210 (Lincoln, Nebr.).
(§5) The protein degradation results are summarized in Table 1, wherein A represents a value no less than 80%, B represents a value less than 80% but no less than 50%, C represents a value less than 50% but no less than 25%, and D represents a value less than 25% protein degradation at a compound concentration of 0.1 μM.

GSPT1 = molecular target: T2, GSPT1 (Homo sapiens, UniProt P15170+Q96SW2); test: Protein degradation assay (Western blot) in MV-4-11 cells: GSPT1; assay type: cell-based; settings: 6-8 h, compound concentration 0.1 μM
T2 construct: Whole cell extracts were prepared using a radioimmunoprecipitation assay (RIPA) buffer; endogenous in cells; host or cells: MV-4-11
Protocol: as §2, §3, §4, §5

IKAROS = molecular target: T3, IKAROS (Homo sapiens, UniProt Q13422+Q96SW2); test: Protein degradation assay (Western blot) in MV-4-11 cells: IKAROS; assay type: cell-based; settings: 6-8 h, compound concentration 0.1 μM
T3 construct: Whole cell extracts were prepared using a radioimmunoprecipitation assay (RIPA) buffer; endogenous in cells; host or cells: MV-4-11
Protocol: as §2, §3, §4, §5

IL-6 = test: Cytokine modulation assay, LPS-induced PBMCs or CD14+ monocytes: IL-6; assay type: cell-based; settings: 0.1 μM compound, 100 ng/mL LPS 18-24 h
Protocol: as §1

IL-1β = test: Cytokine modulation assay, LPS-induced PBMCs or CD14+ monocytes: IL-1β; assay type: cell-based; settings: 100 ng/mL LPS 18-24 h; for inhibition at 0.1 µM: 0.1 μM compound; for inhibition at 1 µM: 1 μM compound
Protocol: as §1

IL-2 = IL-2 analysis in anti-CD3 stimulated PBMCs; assay type: cell-based, human; settings: 0.01 μM compound, PBMCs on anti-CD3 coated plates, 24 h
Protocol: For the IL-2 analysis, 96 well plates were precoated with 1 μg/mL anti-human CD3 antibody (OKT3, eBioscience Inc., San Diego, Calif.). After washed with PBS, the compound was added (50 μL/well), followed by addition of PBMCs diluted at 3-4 million cells/mL (150 μL/well). The plates were incubated for 24 h and the supernatants were collected for IL-2 analysis. IL-2 activity was measured as fold difference from the DMSO control. At a concentration of 0.01 μM, compounds I-1 and I-3 stimulated IL-2 production with 3.7 and 3.9 fold change, respectively, over the DMSO control.

MOLM-13 cells = test: MOLM-13 cell viability assay (CellTiter-Glo); assay type: cell-based; settings: 3 days, concentration of 1 μM; for cytotoxicity at 1 µM: Homo sapiens, MOLM-13, 72 h, read-out: Antiproliferative Activity (inhibition, MOLM-13 cell viability)
How it was run: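 Luminescent ATP read-out (CellTiter-Glo, 10 min with shaking) after 3-day compound or DMSO exposure at 37° C, 5% CO2. Cells plated at 2,500/well in RPMI 1640 plus 10% FBS.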

THLE-2 cells = test: THLE-2 cell viability assay (CellTiter-Glo); assay type: cell-based; settings: Homo sapiens, 72 h, 3 days
Protocol: THLE-2 cells were cultured using BEGM™ BULLETKIT™ supplemented with 10% fetal bovine serum, streptomycin, and penicillin. The cells were plated in white walled 96-well plates at 5,000 cells/well. After the cells were incubated in DMSO (control) or a compound for 3 days at 37° C. and 5% CO2, 100 μL of CELLTITER-GLO® (CTG) was added to each well. Following a 10 minutes incubation with shaking, luminescence was measured using an ENVISION® Multimode plate reader. In this example, compound II-1 was compared to reference compound A: […]

T3 sequence (Q13422 whole entry): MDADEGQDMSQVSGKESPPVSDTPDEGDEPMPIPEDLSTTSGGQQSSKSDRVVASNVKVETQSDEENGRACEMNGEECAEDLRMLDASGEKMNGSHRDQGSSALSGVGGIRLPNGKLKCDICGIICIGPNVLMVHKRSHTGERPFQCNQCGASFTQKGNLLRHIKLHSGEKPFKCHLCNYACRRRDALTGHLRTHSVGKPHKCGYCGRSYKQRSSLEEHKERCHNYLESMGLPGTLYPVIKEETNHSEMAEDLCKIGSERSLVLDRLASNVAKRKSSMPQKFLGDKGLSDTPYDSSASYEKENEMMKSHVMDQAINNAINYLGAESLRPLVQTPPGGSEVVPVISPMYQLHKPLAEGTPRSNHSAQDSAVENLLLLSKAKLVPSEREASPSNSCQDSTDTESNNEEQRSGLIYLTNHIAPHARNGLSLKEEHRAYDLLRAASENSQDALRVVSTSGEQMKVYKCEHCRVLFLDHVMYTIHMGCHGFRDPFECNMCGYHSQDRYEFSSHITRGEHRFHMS
T3 sequence (Q96SW2 whole entry): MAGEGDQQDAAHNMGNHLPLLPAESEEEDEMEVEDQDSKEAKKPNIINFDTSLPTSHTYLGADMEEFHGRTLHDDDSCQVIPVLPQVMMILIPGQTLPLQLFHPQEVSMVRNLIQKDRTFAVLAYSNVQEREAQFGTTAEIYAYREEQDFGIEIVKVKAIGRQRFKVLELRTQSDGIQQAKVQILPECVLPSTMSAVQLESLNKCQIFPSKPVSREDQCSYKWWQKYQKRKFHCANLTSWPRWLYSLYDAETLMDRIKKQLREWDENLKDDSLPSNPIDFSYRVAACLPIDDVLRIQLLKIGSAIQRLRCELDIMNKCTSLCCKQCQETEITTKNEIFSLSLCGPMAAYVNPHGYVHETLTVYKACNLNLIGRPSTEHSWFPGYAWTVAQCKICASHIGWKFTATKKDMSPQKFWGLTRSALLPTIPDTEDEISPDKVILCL
T3 sequence (Q16531 whole entry partner): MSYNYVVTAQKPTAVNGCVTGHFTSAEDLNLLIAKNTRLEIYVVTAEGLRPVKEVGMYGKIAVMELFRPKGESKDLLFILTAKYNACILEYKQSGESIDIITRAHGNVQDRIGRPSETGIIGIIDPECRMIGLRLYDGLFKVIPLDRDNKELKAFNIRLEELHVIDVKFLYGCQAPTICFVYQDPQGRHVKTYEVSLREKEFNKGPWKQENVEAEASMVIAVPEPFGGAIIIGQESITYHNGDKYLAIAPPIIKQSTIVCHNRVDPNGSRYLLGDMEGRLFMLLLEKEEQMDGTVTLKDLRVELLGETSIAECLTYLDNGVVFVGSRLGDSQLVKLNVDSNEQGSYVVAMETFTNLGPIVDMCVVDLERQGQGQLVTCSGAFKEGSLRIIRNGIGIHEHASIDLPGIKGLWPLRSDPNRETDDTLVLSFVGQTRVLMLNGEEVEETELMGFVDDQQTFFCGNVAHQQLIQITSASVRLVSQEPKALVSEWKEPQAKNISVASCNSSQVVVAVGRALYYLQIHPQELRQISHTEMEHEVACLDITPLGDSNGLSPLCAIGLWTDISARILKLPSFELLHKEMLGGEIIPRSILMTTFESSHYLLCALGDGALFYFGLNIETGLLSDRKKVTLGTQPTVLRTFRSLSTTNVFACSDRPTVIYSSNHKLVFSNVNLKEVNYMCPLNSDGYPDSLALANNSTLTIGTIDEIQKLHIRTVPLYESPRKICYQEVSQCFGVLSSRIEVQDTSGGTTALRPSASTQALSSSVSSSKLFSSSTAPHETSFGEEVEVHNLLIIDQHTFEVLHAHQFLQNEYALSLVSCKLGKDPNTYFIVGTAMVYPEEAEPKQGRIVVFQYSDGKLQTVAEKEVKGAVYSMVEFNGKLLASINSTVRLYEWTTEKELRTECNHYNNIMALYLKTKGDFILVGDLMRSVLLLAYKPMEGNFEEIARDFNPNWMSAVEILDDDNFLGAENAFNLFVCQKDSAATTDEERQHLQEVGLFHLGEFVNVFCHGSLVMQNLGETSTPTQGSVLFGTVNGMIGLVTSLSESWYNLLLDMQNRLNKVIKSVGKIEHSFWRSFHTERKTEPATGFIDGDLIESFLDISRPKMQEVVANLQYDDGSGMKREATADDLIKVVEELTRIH
T1 sequence (P48729 whole entry): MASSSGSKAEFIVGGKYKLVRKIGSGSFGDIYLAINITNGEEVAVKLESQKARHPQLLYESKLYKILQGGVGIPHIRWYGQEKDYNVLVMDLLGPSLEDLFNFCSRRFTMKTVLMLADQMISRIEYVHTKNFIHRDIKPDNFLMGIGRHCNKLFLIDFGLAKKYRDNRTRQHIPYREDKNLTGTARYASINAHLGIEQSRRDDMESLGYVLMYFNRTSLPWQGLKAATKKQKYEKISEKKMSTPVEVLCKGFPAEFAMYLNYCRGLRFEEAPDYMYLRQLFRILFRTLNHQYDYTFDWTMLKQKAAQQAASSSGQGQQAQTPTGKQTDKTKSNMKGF
T1 sequence (Q96SW2 whole entry): as the sequence (Q96SW2 whole entry) above
T1 sequence (Q16531 whole entry partner): as the sequence (Q16531 whole entry partner) above
T2 sequence (P15170 whole entry): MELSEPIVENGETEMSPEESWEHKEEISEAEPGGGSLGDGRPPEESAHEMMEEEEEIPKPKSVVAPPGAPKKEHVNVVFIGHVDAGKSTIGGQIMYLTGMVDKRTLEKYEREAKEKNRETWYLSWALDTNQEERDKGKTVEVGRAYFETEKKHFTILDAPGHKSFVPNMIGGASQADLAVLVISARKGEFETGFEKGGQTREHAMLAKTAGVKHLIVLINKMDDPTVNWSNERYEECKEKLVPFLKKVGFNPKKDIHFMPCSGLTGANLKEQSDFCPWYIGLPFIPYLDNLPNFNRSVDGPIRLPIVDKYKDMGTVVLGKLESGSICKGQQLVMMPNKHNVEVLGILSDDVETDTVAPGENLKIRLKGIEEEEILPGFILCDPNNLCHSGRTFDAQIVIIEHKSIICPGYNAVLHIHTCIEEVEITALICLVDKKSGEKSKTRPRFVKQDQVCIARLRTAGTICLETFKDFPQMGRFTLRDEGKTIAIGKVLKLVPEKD
T2 sequence (Q96SW2 whole entry): as the sequence (Q96SW2 whole entry) above
T2 sequence (Q16531 whole entry partner): as the sequence (Q16531 whole entry partner) above

CC(C)(C)c1ccc(C(=O)C(=O)NCc2scc3c2CN(C2CCC(=O)NC2=O)C3=O)cc1 (stereo not drawn) [Compound I-1, 2-(4-(tert-butyl)phenyl)-N-((5-(2,6-dioxopiperidin-3-yl)-4-oxo-5,6-dihydro-4H-thieno[3,4-c]pyrrol-1-yl)methyl)-2-oxoacetamide]
inhibition at 0.1 µM (TNF-α): > 80% | Protein Degradation CK1α (CK1α): B (a value less than 80% but no less than 50%) | Protein Degradation GSPT1 (GSPT1): B (a value less than 80% but no less than 50%) | Protein Degradation IKAROS (IKAROS): A (a value no less than 80%) | inhibition at 0.1 µM (IL-6): 50 to 80% | inhibition at 0.1 µM (IL-1β): > 80% | IL-2 production, fold change over the DMSO control (IL-2): 3.7 fold | Antiproliferative Activity (inhibition, MOLM-13 cell viability) (MOLM-13 cells): A (a value no less than 80%)

CC(C)(C)c1ccc(C(=O)C(=O)NCc2ccc3c(c2)CN(C2CCC(=O)NC2=O)C3=O)cc1 (stereo not drawn) [Compound I-2, 2-(4-(tert-butyl)phenyl)-N-((2-(2,6-dioxopiperidin-3-yl)-1-oxoisoindolin-5-yl)methyl)-2-oxoacetamide]
Protein Degradation CK1α (CK1α): B (a value less than 80% but no less than 50%) | Protein Degradation GSPT1 (GSPT1): A (a value no less than 80%) | Protein Degradation IKAROS (IKAROS): A (a value no less than 80%) | cytotoxicity at 1 µM (MOLM-13 cells): > 80%

O=C1CCC(N2Cc3c(csc3CNC(=O)C(=O)c3ccc(C4(C(F)(F)F)CC4)cc3)C2=O)C(=O)N1 (stereo not drawn) [Compound I-3, N-((5-(2,6-dioxopiperidin-3-yl)-4-oxo-5,6-dihydro-4H-thieno[3,4-c]pyrrol-1-yl)methyl)-2-oxo-2-(4-(1-(trifluoromethyl)cyclopropyl)phenyl)acetamide]
inhibition at 0.1 µM (TNF-α): > 80% | inhibition at 1 µM (TNF-α): > 80% | Protein Degradation CK1α (CK1α): A (a value no less than 80%) | Protein Degradation GSPT1 (GSPT1): B (a value less than 80% but no less than 50%) | Protein Degradation IKAROS (IKAROS): A (a value no less than 80%) | inhibition at 0.1 µM (IL-6): 25 to 50% | inhibition at 0.1 µM (IL-1β): > 80% | inhibition at 1 µM (IL-1β): > 80% | IL-2 production, fold change over the DMSO control (IL-2): 3.9 fold | cytotoxicity at 1 µM (MOLM-13 cells): > 80%

CC(C)c1ccc(C(=O)C(=O)NCc2scc3c2CN(C2CCC(=O)NC2=O)C3=O)s1 (stereo not drawn) [Compound I-4, N-((5-(2,6-dioxopiperidin-3-yl)-4-oxo-5,6-dihydro-4H-thieno[3,4-c]pyrrol-1-yl)methyl)-2-(5-isopropylthiophen-2-yl)-2-oxoacetamide]
inhibition at 0.1 µM (TNF-α): > 80% | inhibition at 1 µM (TNF-α): > 80% | Protein Degradation GSPT1 (GSPT1): C (a value less than 50% but no less than 25%) | Protein Degradation IKAROS (IKAROS): A (a value no less than 80%) | inhibition at 0.1 µM (IL-1β): > 80% | inhibition at 1 µM (IL-1β): > 80% | cytotoxicity at 1 µM (MOLM-13 cells): > 80%

O=C1CCC(N2Cc3cc(CNC(=O)C(=O)c4ccc(C5(C(F)(F)F)CC5)cc4)ccc3C2=O)C(=O)N1 (stereo not drawn) [Compound I-5, N-((2-(2,6-dioxopiperidin-3-yl)-1-oxoisoindolin-5-yl)methyl)-2-oxo-2-(4-(1-(trifluoromethyl)cyclopropyl)phenyl)acetamide]
Protein Degradation CK1α (CK1α): C (a value less than 50% but no less than 25%) | Protein Degradation GSPT1 (GSPT1): A (a value no less than 80%) | Protein Degradation IKAROS (IKAROS): A (a value no less than 80%) | cytotoxicity at 1 µM (MOLM-13 cells): > 80%

Cc1ccc(NC(=O)NCc2cc3c(s2)C(=O)N(C2CCC(=O)NC2=O)C3)cc1N(C)C (stereo not drawn) [II-1, 1-(3-(dimethylamino)-4-methylphenyl)-3-((5-(2,6-dioxopiperidin-3-yl)-6-oxo-5,6-dihydro-4H-thieno[2,3-c]pyrrol-2-yl)methyl)urea]
inhibition at 1 µM (TNF-α): 25 to 50% | Protein Degradation GSPT1 (GSPT1): B (a value less than 80% but no less than 50%) | inhibition at 1 µM (IL-1β): 25 to 50% | cytotoxicity at 1 µM (MOLM-13 cells): > 80% | IC50 (THLE-2 cells): 8.9 µM

Cc1ccc(NC(=O)NCc2cc3c(s2)C(=O)N(C2CCC(=O)NC2=O)C3)cc1Cl (stereo not drawn) [reference compound A, reference compound]
IC50 (THLE-2 cells): 0.8 µM
